The text below walks through data of paper PMC9562188, “Characterization of the Aquaporin-9 Inhibitor RG100204 In Vitro and in db/db Mice” (Cells, 2022).

The IC50 is the concentration that gives 50% inhibition.

The target of the experiment is T1, Aquaporin-9 (AQP9) (Homo sapiens, UniProt O43315).
T1 construct: 10×His-hAQP9 (N-terminal 10-histidine tag), purified from P. pastoris, reconstituted in proteoliposomes
T1 sequence (O43315 1-295): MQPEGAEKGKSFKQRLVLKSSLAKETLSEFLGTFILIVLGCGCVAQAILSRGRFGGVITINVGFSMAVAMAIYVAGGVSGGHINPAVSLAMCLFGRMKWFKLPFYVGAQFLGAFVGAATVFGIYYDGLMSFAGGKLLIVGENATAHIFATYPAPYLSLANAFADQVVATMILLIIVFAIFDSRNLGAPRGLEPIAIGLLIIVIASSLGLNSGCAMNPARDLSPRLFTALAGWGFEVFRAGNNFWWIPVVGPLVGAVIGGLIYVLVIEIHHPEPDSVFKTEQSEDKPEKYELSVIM
As to the kind of experiment: stopped-flow light scattering of purified AQP9 proteoliposomes ([…], −[…] Pgly); IC50 (water permeability; glycerol […]) from calcein quenching in human AQP9-expressing CHO cells. The format is cell-based.

In the case of `O=C(CCc1ccc(O)cc1)c1c(O)cc(O)cc1O` [phlor, phloretin], the concentration for half-maximal inhibition (IC50) is ~0.2 µM.
